Source: the NIST ThermoML archive (doi:10.1021/acs.jced.8b00250)
Numbers after ± are expanded uncertainties.

Assay: mn = molality of the nth substance listed, in mol/kg
Details: 298.15 K, 101.3 kPa, Liquid, Alternating current cell with electrodes

O [water] + CCCCC(CC)COC(=O)CC(C(=O)OCC(CC)CCCC)S(=O)(=O)[O-].[Na+]
Details | electrical conductivity [S/m]
m2 = 0 | 0.000327 ± 1.3e-05

CCCCC(CC)COC(=O)CC(C(=O)OCC(CC)CCCC)S(=O)(=O)[O-].[Na+] (stereo unspecified) [sodium bis(2-ethylhexyl) sulfosuccinate] + O
Details | electrical conductivity [S/m]
m1 = 0.1687 | 0.00147 ± 5.9e-05
m1 = 0.5229 | 0.00389 ± 0.00016
m1 = 0.8008 | 0.00578 ± 0.00023
m1 = 1.108 | 0.00786 ± 0.00031
m1 = 1.374 | 0.00965 ± 0.00039
m1 = 1.663 | 0.0116 ± 0.00046
m1 = 2.015 | 0.0139 ± 0.00056
m1 = 2.327 | 0.0161 ± 0.00065
m1 = 2.661 | 0.0184 ± 0.00074
m1 = 3.026 | 0.0213 ± 0.0009
m1 = 3.398 | 0.0239 ± 0.001
m1 = 3.654 | 0.0258 ± 0.001
m1 = 3.95 | 0.0279 ± 0.0011
m1 = 4.202 | 0.0296 ± 0.0012
m1 = 4.434 | 0.0313 ± 0.0013
m1 = 4.65 | 0.0328 ± 0.0013
m1 = 4.896 | 0.0345 ± 0.0014
m1 = 5.165 | 0.0363 ± 0.0015
m1 = 5.513 | 0.0387 ± 0.0015
m1 = 5.782 | 0.0405 ± 0.0016
